# Reference: patent US20250064990A1, “METHODS OF SCREENING FOR VMAT2 INHIBITORS” (Neurocrine Biosciences, Inc., priority 2021, published 2025)
# Biological target: VMAT2 (Homo sapiens, UniProt Q05940)
# Test: VMAT2 target occupancy of single oral doses of NBI-750142 in healthy adult male subjects, [^18F]AV-133 PET
# Assay type: in vivo
# Parameters: from tissue; host or cells: brain (caudate, putamen, midbrain) of living healthy adult male subjects
# Settings: for NBI-750142 T1 Occ / [^18F]AV-133 BPND T1: T1 ([…] post dose); for NBI-750142 T2 Occ / [^18F]AV-133 BPND T2: T2 (18 h post dose)
# Experimental: This study was conducted to evaluate the brain penetration and target engagement of VMAT2 after single oral doses of NBI-750142 in healthy subjects. This PET study assessed the engagement of NBI-750142 with VMAT2 in vivo at two time-points after dosing. A sequential-cohort design allowed for the safety, target-occupancy, and available pharmacokinetic (PK) data from each prior cohort to be evaluated before selection of the dose level for the next cohort. A range of NBI-750142 doses (max. 200 mg) were studied to explore the relationship between NBI-750142 plasma concentrations and engagement of VMAT2 in selected brain regions.
# This was a Phase 1 single-center, open-label, single-dose, target occupancy study of NBI-750142 in up to 12 healthy male subjects using [^18F]AV-133 PET imaging. […] A total of 12 subjects completed the study. Subjects enrolled in the study were required to report to the clinical research site for 4 separate occasions, detailed below.
# Two subjects were initially enrolled in each dose cohort. Each subject received one brain structural magnetic resonance imaging (MRI) scan during screening and up to 3 [^18F]AV-133 PET scans (1 baseline and up to 2 follow-up scans after receiving a single dose of NBI-750142). Subjects enrolled in the first cohort received a single dose of 100 mg of NBI-750142 orally on Day 1. PET scans occurred on Day 1 at approximately 1.5 hours post NBI-750142 dose and on Day 2 at approximately 18 hours post NBI-750142 dose. Subjects were then discharged from the study center after all Day 3 procedures and assessments were completed.
# Subjects were administered a single dose of [^18F]AV-133 intravenously over 3 minutes using an infusion pump (approximately 3.33 mL per minute) through a venous catheter followed by a 10 mL saline flush. Dynamic PET imaging of the brain was acquired over 120 min following radiotracer injection on a Siemens Biograph 6 PET/CT camera according to the following protocol: • CT scan of the head • [^18F]AV-133 injection (T=0 min) • Emission scan: 6×30 sec, 4×1 min, 4×2 min, 21×5 min (0-120 min)
# Reconstructed PET imaging data volumes were transferred to the image processing PMOD software package (PMOD Technologies, Zurich, Switzerland) where the images were motion and decay corrected, realigned onto the subject MRI and subsequently normalized into the standard MNI (Montreal Neurological Institute) space where volumes of interest (VOIs) were defined from a template (see e.g., Hammers et al, Adult brain maximum probability map (“Hammersmith atlas”; n30r83) in MNI space. 2008). The subject MRI was segmented into grey matter, white matter, and CSF maps. Average activity concentration (kBq/cc) within each VOI, constrained to grey matter voxels for cortical regions, were determined and time activity curves (TACs) were generated. TACs were extracted from the following VOIs: caudate and putamen (striatum), midbrain, cerebellar and occipital cortices. TACs and were expressed in standard uptake value (SUV) units (g/mL) by normalizing with the weight of the subject and the injected dose. The occipital cortex was used as a reference region to normalize activity in target regions to generate SUVr images. For visualization, standard uptake value ratio (SUVr) images were computed between 60-120 min. Non-displaceable binding potential (BPND), the primary outcome measure, was estimated with noninvasive Logan graphical analysis (NI-LGA, t*=20 min) in caudate, putamen and midbrain using the occipital cortex as the reference region. Percent measured occupancy (OM) of NBI-750142 (drug) by region was computed according to the Equation 3-1 at each of the post-dose timepoints, T1 (1.5 h post dose) and T2 (18 h post dose).
# Post-hoc exploratory analysis applied an Upregulation model (Equation 3-3), in order to account for the apparent ‘negative occupancy’ values observed at T2 (BPND values at T2 were unexpectedly higher than corresponding BPND values at baseline). […]
# [1] = Cohort 1, 100 mg, Subject 1, Caudate
# [2] = Cohort 1, 100 mg, Subject 1, Midbrain
# [3] = Cohort 1, 100 mg, Subject 1, Putamen
# [4] = Cohort 1, 100 mg, Subject 2, Caudate
# [5] = Cohort 1, 100 mg, Subject 2, Midbrain
# [6] = Cohort 1, 100 mg, Subject 2, Putamen
# [7] = Cohort 2, 200 mg, Subject 1, Caudate
# [8] = Cohort 2, 200 mg, Subject 1, Midbrain
# [9] = Cohort 2, 200 mg, Subject 1, Putamen
# [10] = Cohort 2, 200 mg, Subject 2, Caudate
# [11] = Cohort 2, 200 mg, Subject 2, Midbrain
# [12] = Cohort 2, 200 mg, Subject 2, Putamen
# [13] = Cohort 3, 60 mg, Subject 1, Caudate
# [14] = Cohort 3, 60 mg, Subject 1, Midbrain
# [15] = Cohort 3, 60 mg, Subject 1, Putamen
# [16] = Cohort 3, 60 mg, Subject 2, Caudate
# [17] = Cohort 3, 60 mg, Subject 2, Midbrain
# [18] = Cohort 3, 60 mg, Subject 2, Putamen
# [19] = Cohort 4, 60 mg, Subject 1, Caudate
# Chain of VMAT2 (Q05940 whole entry): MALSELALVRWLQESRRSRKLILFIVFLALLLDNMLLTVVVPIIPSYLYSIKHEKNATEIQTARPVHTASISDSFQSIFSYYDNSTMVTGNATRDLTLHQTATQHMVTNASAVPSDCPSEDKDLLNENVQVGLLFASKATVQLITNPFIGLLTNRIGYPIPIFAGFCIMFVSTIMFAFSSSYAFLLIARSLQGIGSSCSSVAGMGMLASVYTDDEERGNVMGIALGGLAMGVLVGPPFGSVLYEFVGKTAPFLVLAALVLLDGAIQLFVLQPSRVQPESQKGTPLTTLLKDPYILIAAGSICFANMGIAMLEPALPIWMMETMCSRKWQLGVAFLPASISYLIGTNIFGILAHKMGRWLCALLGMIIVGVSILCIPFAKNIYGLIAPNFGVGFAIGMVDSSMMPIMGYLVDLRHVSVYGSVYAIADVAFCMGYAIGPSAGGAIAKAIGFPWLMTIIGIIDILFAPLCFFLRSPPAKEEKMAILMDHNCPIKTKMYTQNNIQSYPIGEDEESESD
smiles,measurement,setting,value
COc1cc2c(cc1OC)[C@H]1CN(C)[C@H](CC(C)(C)C)CN1CC2 [NBI-750142],[^18F]AV-133 striatal uptake at T1 vs baseline,"10 mg, cohorts 5A and 5B",did not show reduction in uptake
same,[^18F]AV-133 striatal uptake at T1 vs baseline,"60 mg, cohorts 3 and 4",showed variability between subjects
same,[^18F]AV-133 striatal uptake at T1 vs baseline,"100 mg and 200 mg doses, both subjects",markedly reduced uptake
same,NBI-750142 T1 Occ,[1],72%
same,[^18F]AV-133 BPND T1,[1],0.34
same,NBI-750142 T2 Occ,[1],3%
same,[^18F]AV-133 BPND T2,[1],1.15
same,NBI-750142 T1 Occ,[2],59%
same,[^18F]AV-133 BPND T1,[2],0.15
same,NBI-750142 T2 Occ,[2],5%
same,[^18F]AV-133 BPND T2,[2],0.34
same,NBI-750142 T1 Occ,[3],54%
same,[^18F]AV-133 BPND T1,[3],0.95
same,NBI-750142 T2 Occ,[3],−2%
same,[^18F]AV-133 BPND T2,[3],2.11
same,NBI-750142 T1 Occ,[4],80%
same,[^18F]AV-133 BPND T1,[4],0.38
same,NBI-750142 T2 Occ,[4],15%
same,[^18F]AV-133 BPND T2,[4],1.60
same,NBI-750142 T1 Occ,[5],60%
same,[^18F]AV-133 BPND T1,[5],0.20
same,NBI-750142 T2 Occ,[5],30%
same,[^18F]AV-133 BPND T2,[5],0.36
same,NBI-750142 T1 Occ,[6],73%
same,[^18F]AV-133 BPND T1,[6],0.66
same,NBI-750142 T2 Occ,[6],13%
same,[^18F]AV-133 BPND T2,[6],2.09
same,Occupancy at T2 in striatum,"Cohort 1 at 100 mg, subject 1, 18 h post dose",1%
same,Occupancy at T2 in striatum,"Cohort 1 at 100 mg, subject 2, 18 h post dose",14%
same,NBI-750142 T1 Occ,[7],75%
same,[^18F]AV-133 BPND T1,[7],0.40
same,NBI-750142 T2 Occ,[7],−30%
same,[^18F]AV-133 BPND T2,[7],2.06
same,NBI-750142 T1 Occ,[8],63%
same,[^18F]AV-133 BPND T1,[8],0.14
same,NBI-750142 T2 Occ,[8],−33%
same,[^18F]AV-133 BPND T2,[8],0.49
same,NBI-750142 T1 Occ,[9],69%
same,[^18F]AV-133 BPND T1,[9],0.74
same,NBI-750142 T2 Occ,[9],−26%
same,[^18F]AV-133 BPND T2,[9],3.00
same,NBI-750142 T1 Occ,[10],72%
same,[^18F]AV-133 BPND T1,[10],0.51
same,NBI-750142 T2 Occ,[10],−7%
same,[^18F]AV-133 BPND T2,[10],1.91
same,NBI-750142 T1 Occ,[11],60%
same,[^18F]AV-133 BPND T1,[11],0.23
same,NBI-750142 T2 Occ,[11],7%
same,[^18F]AV-133 BPND T2,[11],0.53
same,NBI-750142 T1 Occ,[12],67%
same,[^18F]AV-133 BPND T1,[12],0.88
same,NBI-750142 T2 Occ,[12],−5%
same,[^18F]AV-133 BPND T2,[12],2.81
same,Occupancy at T2 in striatum,"Cohort 2 at 200 mg, subject 1, 18 h post dose",−28%
same,Occupancy at T2 in striatum,"Cohort 2 at 200 mg, subject 2, 18 h post dose",−6%
same,NBI-750142 T1 Occ,[13],37%
same,[^18F]AV-133 BPND T1,[13],1.04
same,NBI-750142 T2 Occ,[13],−15%
same,[^18F]AV-133 BPND T2,[13],1.93
same,NBI-750142 T1 Occ,[14],47%
same,[^18F]AV-133 BPND T1,[14],0.20
same,NBI-750142 T2 Occ,[14],−5%
same,[^18F]AV-133 BPND T2,[14],0.39
same,NBI-750142 T1 Occ,[15],34%
same,[^18F]AV-133 BPND T1,[15],1.31
same,NBI-750142 T2 Occ,[15],−12%
same,[^18F]AV-133 BPND T2,[15],2.22
same,NBI-750142 T1 Occ,[16],6%
same,[^18F]AV-133 BPND T1,[16],1.62
same,NBI-750142 T2 Occ,[16],−20%
same,[^18F]AV-133 BPND T2,[16],2.07
same,NBI-750142 T1 Occ,[17],16%
same,[^18F]AV-133 BPND T1,[17],0.44
same,NBI-750142 T2 Occ,[17],−22%
same,[^18F]AV-133 BPND T2,[17],0.64
same,NBI-750142 T1 Occ,[18],3%
same,[^18F]AV-133 BPND T1,[18],2.14
same,NBI-750142 T2 Occ,[18],−22%
same,[^18F]AV-133 BPND T2,[18],2.70
same,Occupancy at T2 in striatum,"Cohort 3 at 60 mg, subject 1, 18 h post dose",−14%
same,Occupancy at T2 in striatum,"Cohort 3 at 60 mg, subject 2, 18 h post dose",−21%
same,NBI-750142 T1 Occ,[19],50%
same,[^18F]AV-133 BPND T1,[19],0.78
same,NBI-750142 T2 Occ,[19],−8%
